Results as given in patent US9428753B2, “Use of LXR antagonists for treatment of side effects of elevated glucocorticoid levels” (The Governing Council of the University of Toronto, priority 2013, dated 2016).

Experiments:
G6Pc = G6Pc gene expression in mouse primary hepatocytes; settings: LXRα−/− hepatocytes; for G6Pc expression: 100 nM Dex + 10 μM LXR antagonist; for GC-induced G6Pc expression: Example 6, GC alone (10 μM; Dex 100 nM), overnight
Method: For the gene expression studies, the isolated hepatocytes were cultured at least 24 hrs prior to treatment with 10 μM Cortisol, 10 μM Triamcinolone acetonide, 10 μM Prednisone, and 100 nM Dex all±10 μM GSK2033 overnight, and then harvested to isolate mRNA.

Pepck = Pepck gene expression in mouse primary hepatocytes; type: cell-based; settings: for GC-induced Pepck expression: Example 6, GC alone (10 μM; Dex 100 nM)
GR = biological target: T1, GR (Homo sapiens, UniProt P04150); assay: GAL4-GR / UAS-luc co-transfection reporter assay in HEK293 cells; type: cell-based; design: co-transfecting UAS-reporter and GAL4-LBD of the nuclear receptors LXRα, LXRβ and GR; GAL4 (fusion partner); expressed in transfected cells; host or cells: HEK293 cells; mouse primary hepatocytes; settings: Example 7, 100 nM Dex
T1 sequence (P04150 524-758 limits assumed): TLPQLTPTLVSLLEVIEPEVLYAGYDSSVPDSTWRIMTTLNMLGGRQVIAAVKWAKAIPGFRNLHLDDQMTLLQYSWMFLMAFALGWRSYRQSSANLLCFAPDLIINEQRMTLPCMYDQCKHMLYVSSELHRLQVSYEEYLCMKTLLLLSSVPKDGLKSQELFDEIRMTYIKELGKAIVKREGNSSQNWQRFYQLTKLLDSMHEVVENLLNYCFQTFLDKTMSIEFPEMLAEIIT
Method: (§1) RLU=relative luciferase units.
as §1
Further experiments were then carried out to determine the inhibitory potencies for the individual LXR isoforms in HEK 293 cells by co-transfecting UAS-reporter and GAL4-LBD of the nuclear receptors LXRα, LXRβ and GR and then treating with 8 different concentrations of GSK2033. To assess suppression of ligand activated receptors, the transfected cells were co-treated with increasing doses of GSK2033, in addition to T09091317 or Dex (dexamethasone) (at EC80 of LXR isoforms and GR, respectively).
A number of experiments were carried out to determine the relative inhibitory potencies of GSK2033, Amgen 54 and DMHCl for the individual LXR isoforms in HEK 293 cells by co-transfecting UAS-reporter and GAL4-LBD of the nuclear receptors LXRα, LXRβ and GR and then treating with 6 different concentrations of GSK2033, Amgen 54 and DMHCl. To assess suppression of ligand activated receptors, the transfected cells were co-treated with increasing doses of GSK2033, Amgen 54 and DMHCl, in addition to T09091317 or Dex (at EC80 of LXR isoforms and GR, respectively).

[1] = test system: tyrosine aminotransferase (TAT); assay: TAT gene expression in mouse primary hepatocytes; type: cell-based; settings: 100 nM Dex
Method: T09 treatment was used as a positive control for LXR activity. (D) Glucose output over 24 hrs from LXRα−/− and LXRβ−/− mouse primary hepatocytes following Dex 100 nM±10 μM GSK2033 treatment. (E) Glucose output over 8 hrs from WT hepatocytes following Dex 500 nM±10 μM GSK2033 treatments. […] Legend: V=vehicle, G=GSK2033 (LXR antagonist); D=dexamethasone (GR agonist); and T09=T0901317 (LXR agonist).

LXRα−/− mice = assay: In vivo 5 day Dex ± GSK2033 co-treatment study; design: species or system mouse; settings: Dex group
Method: LXRα−/− mice were treated with Vehicle (Veh), Dex (2.5 mg/kg) b.i.d. or GSK2033 40 mg/kg (once a day) along with Dex b.i.d. for 5 days. (A) Plasma glucose levels were measured by a colorimetric kit (Wako). (B) Spleen weights were measured at the time of sacrifice, and are presented normalized to body weight. (C) Liver Pepck, FOXO1, Pgc 1α, FGF21, GR and LXRβ gene expression measured by QPCR. Data represent the Avg±SEM, N=2-5. *P<0.05 by One way ANOVA, Student Newman Keuls.
Having observed promising results with GSK2033 co-treatment with Dex in-vitro (GSK2033-mediated suppression of GC-induced gluconeogenic side effects without affecting desirable immune suppression); a study was conducted, in which whole body LXRα−/− mice were treated with vehicle (Veh), 2.5 mg/kg bid (subcutaneous injection) Dex or Dex+40 mg/kg GSK2033 (once a day intraperitoneal injection) for 5 days, and sacrificed at lights on.

[2] = test system: mouse primary hepatocytes; assay: Glucose production (glucose output) in mouse primary hepatocytes; type: cell-based
Method: T09 treatment was used as a positive control for LXR activity. (D) Glucose output over 24 hrs from LXRα−/− and LXRβ−/− mouse primary hepatocytes following Dex 100 nM±10 μM GSK2033 treatment. (E) Glucose output over 8 hrs from WT hepatocytes following Dex 500 nM±10 μM GSK2033 treatments. Data represent the Avg±SD, N=3. *P<0.05 by One way ANOVA, Student Newman Keuls. Legend: V=vehicle, G=GSK2033 (LXR antagonist); D=dexamethasone (GR agonist); and T09=T0901317 (LXR agonist).
While not wishing to be limited by theory, subsequent to conducting these initial studies it was realized that 24 hour incubation of hepatocytes in gluconeogenic media may be too long. In the literature, for this type of assay, primary heptocytes are usually incubated up to 12 hours. As such, for subsequent studies of the present application, WT cells were treated with 500 nM Dex for 8 hours to be able to measure detectable levels of glucose in the media.

IL-1β = IL-1β gene expression in LPS activated mouse primary macrophages (RT-QPCR); type: cell-based; settings: LPS activated macrophages; 250 nM T09, 18 hrs
Method: (§2) The expression of genes involved in immune response IL-1β, IL-6 and GILZ was measured following an overnight treatment with Dex 100 nM, 250 nM T0901317 (T09), and/or 10 μM GSK2033 in LPS activated WT, LXR α −/− and LXRβ −/− mouse primary macrophages, by RT-QPCR. Data represent the Avg±SD, N=3. *P<0.05 by One way ANOVA, Student Newman Keuls.
(§3) To assess the ability of GSK2033 to affect GR-mediated inflammatory suppression, a number of gene expression studies were conducted on primary macrophages isolated from WT, LXRα−/− and LXRβ−/− mice. Cells were pre-treated with 10 ng/ml lipopolysaccharide (LPS) for 6 hrs (to induce a potent inflammatory response) followed by treatment of 100 nM Dex, 10 μM GSK2033 and/or 250 nM T09 for 18 hrs.

IL-6 = IL-6 gene expression in LPS activated mouse primary macrophages (RT-QPCR); type: cell-based; settings: LPS activated macrophages; 250 nM T09, 18 hrs
Method: as §2, §3

Srebp-1c = Srebp-1c gene expression in mouse primary hepatocytes; type: cell-based; settings: 250 nM T09
[3] = Example 8, LXRα−/− hepatocytes, 100 nM Dex + 10 μM LXR antagonist

Question: Which results are given for `CS(=O)(=O)c1ccc(C#CC(O)(c2ccc(N(CC3CC3)S(=O)(=O)c3ccccc3)cc2)C(F)(F)F)cc1` (stereo not drawn) [Amgen 54]?
Answer: G6Pc expression (G6Pc; Example 8): 6.5 fold; Pepck expression (Pepck; [3]): 8.4 fold; Dex induced GR activity (GR): unaffected

Question: What does the source list for `C[C@]12CCC(=O)C=C1CC[C@@H]1[C@@H]2[C@@H](O)C[C@@]2(C)[C@H]1CC[C@]2(O)C(=O)CO` [Cortisol, cortisol (hydrocortisone)]?
Answer: GC-induced G6Pc expression (G6Pc): 10.3 fold; GC-induced Pepck expression (Pepck; LXRα−/− hepatocytes, overnight): 23.9 fold

Question: How did the G6Pc expression (G6Pc; Example 8) turn out when `CC(CCC(=O)N(C)C)[C@H]1CC[C@H]2C3CC=C4CC(Cl)CC[C@]4(C)C3CC[C@]12C` (stereo partly drawn) [DMHCl] was run?
Answer: 3.9 fold

Question: What about the Pepck expression (Pepck; [3]) of the same compound?
Answer: 1.4 fold

Question: What about the “Dex induced GR activity” value (GR) of the same compound?
Answer: unaffected

Question: With `C[C@@H]1C[C@H]2[C@@H]3CCC4=CC(=O)C=C[C@]4(C)[C@@]3(F)[C@@H](O)C[C@]2(C)[C@@]1(O)C(=O)CO` [Dex, dexamethasone] as the compound, how does the “GC-induced G6Pc expression” value (G6Pc) read?
Answer: 11.2 fold

Question: What about the “Dex-mediated G6Pc expression” value (G6Pc; Example 8, 100 nM Dex alone) of the same compound?
Answer: 10.3 fold

Question: And the Pepck expression (Pepck; Example 3, LXRα−/− hepatocytes, 100 nM Dex alone)?
Answer: 15.7 fold

Question: And the Pepck expression (Pepck; Example 3, WT hepatocytes, 100 nM Dex alone, overnight)?
Answer: 8.5 fold

Question: What about the “GC-induced Pepck expression” value (Pepck; LXRα−/− hepatocytes, overnight) of the same compound?
Answer: 23.2 fold

Question: And the “Dex-induced Pepck expression” value (Pepck; Example 8, LXRα−/− hepatocytes, 100 nM Dex alone)?
Answer: 15.8 fold

Question: What about the “TAT expression (induction)” value ([1]; LXRα−/− hepatocytes) of the same compound?
Answer: 12.7 fold

Question: And the “TAT expression (induction)” value ([1]; LXRβ−/− hepatocytes)?
Answer: 9.7 fold

Question: And the “TAT expression (induction)” value ([1]; WT hepatocytes)?
Answer: 20.8 fold

Question: What about the “liver FOXO 1 gene expression (induction)” value (LXRα−/− mice) of the same compound?
Answer: 3.3 fold

Question: And the “liver Pepck gene expression (induction)” value (LXRα−/− mice)?
Answer: 3.7 fold

Question: And the “glucose secretion (glucose output)” value ([2]; LXRα−/− hepatocytes, 100 nM Dex alone, 24 hours)?
Answer: 2.2 fold

Question: And the “glucose secretion (glucose output)” value ([2]; WT hepatocytes, 500 nM Dex alone, 8 hours)?
Answer: 3 fold

Question: Which results are given for `C[C@]12C=CC(=O)C=C1CC[C@@H]1[C@@H]2C(=O)C[C@@]2(C)[C@H]1CC[C@]2(O)C(=O)CO` [Prednisone, prednisone]?
Answer: GC-induced G6Pc expression (G6Pc): 22.3 fold; GC-induced Pepck expression (Pepck; LXRα−/− hepatocytes, overnight): 9.3 fold

Question: Which “IL-1β expression, LXR agonist alone” value (IL-1β) does the source give for `O=S(=O)(c1ccccc1)N(CC(F)(F)F)c1ccc(C(O)(C(F)(F)F)C(F)(F)F)cc1` [T09] here?
Answer: suppression

Question: And the “IL-6 expression, LXR agonist alone” value (IL-6)?
Answer: suppression

Question: And the “Srebp-1c expression (induction)” value (Srebp-1c; LXRα−/− hepatocytes)?
Answer: 3.7 fold

Question: And the “Srebp-1c expression (induction)” value (Srebp-1c; LXRβ−/− hepatocytes)?
Answer: 42.0 fold

Question: And the “Srebp-1c expression (induction)” value (Srebp-1c; WT hepatocytes)?
Answer: 37.7 fold

Question: For `CC1(C)O[C@@H]2C[C@H]3[C@@H]4CCC5=CC(=O)C=C[C@]5(C)[C@@]4(F)[C@@H](O)C[C@]3(C)[C@]2(C(=O)CO)O1` [Triamcinolone acetonide, triamcinolone acetonide], which “GC-induced G6Pc expression” value (G6Pc) is on record?
Answer: 27.3 fold

Question: And the “GC-induced Pepck expression” value (Pepck; LXRα−/− hepatocytes, overnight)?
Answer: 6.1 fold
